Experimental data from article PMC8840742 (Molecules, 2022).

Experiments:
[1] = test system: SARS-CoV-2 B.1.617.2 (Indian or Delta variant); assay: microbe, parasite or virus in culture; format: cell-based; conditions: Severe acute respiratory syndrome coronavirus 2, Vero C1008; VeroE6 cells in presence of P-gp inhibitor
[2] = test system: SARS-CoV-2 B.1.1.7 (UK or Alpha variant); assay: microbe, parasite or virus in culture; format: cell-based; conditions: Severe acute respiratory syndrome coronavirus 2, Vero C1008; VeroE6 cells in presence of P-gp inhibitor

Question: With `c1ccc(CCN2CCC(Oc3ccccc3-c3nc(-c4ccncc4)no3)C2)cc1` (centres unmarked) [Compound 1, 5-(2-((1-Phenethylpyrrolidin-3-yl)oxy)phenyl)-3-(pyridin-4-yl)-1,2,4-oxadiazole] as the compound, how does the EC50 [1] read?
Answer: The EC50 was 4 ± 2 µM.

Question: And the EC50 [2]?
Answer: Its EC50 is 3000 ± 1000 nM.
